Measurements: patent publication US6046231A, “Use of 4'-bromoflavone in a cancer chemopreventative composition and method” (The Board of Trustees of the University of Illinois, priority 1999, dated 2000)

Key:
GST Ya (α class) = test: Western blot of GST Ya (α-type) expression in H4IIE cells; type: cell-based, rat; conditions: for GST Ya (α) induction: H4IIE cells
Procedure: Western Blot Analysis Glutathione S-transferase Expression. Cultured H4IIE rat hepatoma cells were treated with test agent with various concentrations or various time points. […] Cells were harvested using SDS lysis buffer (20 mM Tris-Cl, pH 6.8, containing 0.4% SDS (w/v), 4% glycerol, 0.24 M β-mercaptoethanol, and 0.5% bromphenol) and the lysates were boiled for 5 minutes, then stored at -20° C. An aliquot of lysate was used for protein determination using a bicichoninic acid protein assay kit with BSA as a standard. Equivalent amounts of protein were electrophoresed by SDS-PAGE on precast 12.5% Tris-glycine acrylamide gels (Novex, San Diego, Calif.), then transferred to polyvinylidene difluoride (PDVF) membranes. Nonspecific binding sites were blocked with 10% nonfat dry milk and blotting was performed with goat polyclonal antirat GSTYa (α class) IgG or antirat, GSTYb (μ class) IgG and analyzed by alkaline phosphatase-conjugated antigoat IgG secondary antibody (Oxford Biomed Research, Inc.) and quantified using an AP 20 Alkaline Phosphatase Kit detection system (Oxford Biomed Research, Inc.).
Induction of Expression of Glutathione S-transferase Ya (α-type) and Yb (μ-type) in Cell Cultures. […] To date, the superfamily of mammalian cytosolic GST isozymes has been defined genetically to consist of four classes; α, μ, π, and θ, which differ in tissue-specificexpression and distribution, as well as substrate specificity. […] Cultured H4IIE cells were treated either with 10 μM of 4'-BF (FIG. 7B) or sulforaphane for 0, 2, 4, 8, 16, 24, and 48 hours for a time-dependent study, or with 0.16, 0.8, 4, 10, 20, and 50 μM of 4'-BF (FIG. 7A) or sulforaphane for 24 hr for a dose-dependent study (FIG. 7A). The expressions of two major detoxification isoforms of GSTs (GST Ya: α-type, and GST Yb: μ-type) mediated by 4'-BF or sulforaphane were investigated in H4EII rat hepatoma cells using Western blotting technique.

quinone reductase (QR) [1] = test: QR activity in rat tissues after dietary administration; type: in vivo, Sprague Dawley rat
Procedure: (§1) Analysis of Quinone Reductase Activity and Glutathione Level in Rat Tissues. Spraque Dawley rats (n=10) at 43 days of age were placed on an appropriate experimental diet (5000, 2500, 1250, 625, and 312.5 mg/kg diet of 4'-BF) for three weeks. After three weeks, animals were sacrificed by carbon dioxide (CO2) asphyxiation. The livers, mammary glands, colons, stomachs, and lungs were collected, rinsed with saline, and frozen in liquid nitrogen and stored at -80° C. until enzyme activities were determined. Individual tissues (except mammary glands) were homogenized in 0.25 M sucrose and centrifuged at 15,000×g for 30 min at 4° C. The supernatant fluids were collected, 20% volume of 0.1 M CaCl2 in 0.25 M sucrose were added. After incubation at 0° C. for 30 min and further centrifuging at 15,000×g for 30 min at 4° C., a clear cytosolic fraction was used for enzyme assay. Mammary glands of each animal were pooled, homogenized in 1 ml ice-cold 0.1 M phosphate buffer pH 6.5 and centrifuged (15,000×g, 30 min at 4° C.), a clear supernatant suitable for enzyme assay resulted. Dicumarol-sensitive QR activity was measured in duplicate in 50 μl of suitable dilution of the tissue supernatant as described for the cellular system. GSH levels were assayed in duplicate using 96-well plates. […] The plates were shaken for 5-10 min and the extent of 2-nitro-5-thiobenzoic acid formation was monitored at 405 nm. A GSH standard curve was used to calculate the GSH content. GSH levels were expressed as nmol/mg protein.
(§2) Induction of Quinone Reductase Activity and Glutathione Level in Rat Tissues. Based on the results in cell cultures, 4'-BF was further evaluated for its inducing potency in rat liver, mammary gland, colon, stomach, and lung. […] The concentration of 4'-BF for maximum induction of GSH was about 1250 to about 2500 mg/kg diet, but varied for different organ sites.

glutathione (GSH) level = test: Glutathione (GSH) level in rat tissues after dietary administration; type: in vivo, Sprague Dawley rat
Procedure: as §1, §2

quinone reductase (QR) [2] = test: Effect on DMBA-induced QR activity in rat tissues; type: in vivo, Sprague Dawley rat; conditions: liver and mammary gland
Procedure: Effect of 4'-Bromoflavone on DMBA-induced QR Activity and Cytochrome P4501A1 Activity in Rat Tissues. At 43 days of age, Sprague Dawley rats were placed on various experimental diets (Table 1) for 1 week prior to administration of a single (i.g.) dose of DMBA (15 mg). Animals then were weighed and sacrificed by CO2 asphyxiation. Tissues (livers and mammary glands) were collected, rinsed with saline, frozen in liquid nitrogen, and stored at -80° C. until analysis. Individual tissues were homogenized in 0.05 M Tris-HCl buffer (pH 7.5) containing 0.25 M sucrose. Cytosolic and microsomal fractions were obtained through differential centrifugation. Dicumarol-sensitive QR activity was measured as described above using 50 μl of suitably diluted cytosol supernatants (in duplicate). Cytochrome P4501A1-mediated EROD activities were determined as described previously in R. Poul et al. Anal. Biochem., 107, pp. 265-275 (1980) and S. Sharma et al., Cancer Res., 54, pp. […] (1994), with slight modifications using suitably diluted microsomal protein. Enzyme activities were expressed as nmol/mg protein/min. Protein content was determined using Bradford reagent with BSA as standard, and data were presented as mean ±SE and analyzed using Student's t test (n=5).
Test animals were placed on various experimental diets for one week (Table 1) prior to a single i.g. dose of DMBA (15 mg). […]

[3] = liver, mammary gland, colon, stomach, lung, short-term dietary, P<0.0001

O=c1cc(-c2ccc(Br)cc2)oc2ccccc12 [4'-Bromoflavone]
maximum induction time, GST Ya (GST Ya (α class); 10 μM, 0-48 h): 16 to 24 h | maximum induction concentration, GST Ya (GST Ya (α class); 0.16-50 μM, 24 h): 10 to 20 µM | GST Ya (α) induction (GST Ya (α class)): effectively induced | GST Ya (α) induction (GST Ya (α class); listed as 4'-BF): induced by 4'-BF in a time, dose-dependent manner | QR activity induction, colon (quinone reductase (QR) [1]; colon, 312.5-5000 mg/kg diet, 3 weeks): 2.09-4.81 fold | QR activity in rat tissues (quinone reductase (QR) [1]; [3]): significantly increased | QR activity induction, liver (quinone reductase (QR) [1]; liver, 312.5-5000 mg/kg diet, 3 weeks): 2.22-7.60 fold | QR activity induction, lung (quinone reductase (QR) [1]; lung, 312.5-5000 mg/kg diet, 3 weeks): 2.18-5.25 fold | QR activity induction, mammary gland (quinone reductase (QR) [1]; mammary gland, 312.5-5000 mg/kg diet, 3 weeks): 1.59-5.52 fold | QR activity induction, stomach (quinone reductase (QR) [1]; stomach, 312.5-5000 mg/kg diet, 3 weeks): 1.97-3.42 fold | GSH level increase, colon (glutathione (GSH) level; colon, dietary): 1.40-1.72 fold | glutathione levels in rat tissues (glutathione (GSH) level; [3]): significantly increased | GSH level increase, liver (glutathione (GSH) level; liver, dietary): 1.62-1.83 fold | GSH level increase, lung (glutathione (GSH) level; lung, dietary): 1.09-1.42 fold | GSH level increase, mammary gland (glutathione (GSH) level; mammary gland, dietary): 1.01-1.28 fold | GSH level increase, stomach (glutathione (GSH) level; stomach, dietary): 1.16-1.17 fold | QR activity vs control (basal diet) (quinone reductase (QR) [2]; 1 week diet, DMBA 15 mg i.g.): significantly induced | QR activity vs DMBA alone (quinone reductase (QR) [2]; DMBA and 4'-BF or 4'-BF alone): significant dose-dependent induction
